Results as given in patent US6565895B2, “Bismuth compounds for the treatment and prevention of mucositis” (GelTex Pharmaceuticals, Inc., priority 2000, dated 2003).

System: oral mucositis in a hamster model following irradiation
Assay: Hamster model of radiation-induced oral mucositis (mucositis score)
Assay type: in vivo, Golden Syrian hamsters
[1] = solution containing 3.5 mg/ml, 0.5 ml into left cheek pouch three times per day, Day 0 to Day 19, single radiation dose 35-38 Gy
[2] = solution containing 17.5 mg/ml, 0.5 ml into left cheek pouch three times per day, Day 0 to Day 19, single radiation dose 35-38 Gy

Description: Briefly, male Golden Syrian hamsters (Charles River Laboratories), aged 5 to 6 weeks, with body weights of approximately 90 g at project commencement, were used. Animals were individually numbered using an ear punch and housed in small groups of approximately 6 animals per cage. Animals were acclimatized for at least one week prior to project commencement. During this period, the animals were observed daily in order to reject animals that presented in poor condition. Animals were fed with a standard hamster chow and water ad libitum.
Mucositis was induced using an acute radiation protocol. A single dose of radiation (35-38 Gy/dose) was administered to all animals on Day 0. Radiation was generated with a 250 kilovolt potential (15 mA) source at a focal distance of 50 cm, hardened with a 0.35 mm Cu filtration system. […] Prior to irradiation, animals were anesthetized with an intraperitoneal injection of sodium pentobarbital (80 mg/kg). The left buccal pouch was everted, fixed and isolated using a lead shield.
All animals were dosed with test material three times per day. A needleless tuberculin syringe containing 0.5 ml of the test compound was inserted into the left cheek pouch and the drug deposited into the pouch. Dosing began on Day 0 and continued until Day 19.
The mucositis score, weight change and survival were measured as outcomes in this study. For the evaluation of mucositis, the animals were anesthetized with inhalation anesthetics, and the left pouch everted. Mucositis was scored visually by comparison to a validated photographic scale, ranging from 0 for normal to 5 for severe ulceration (clinical scoring). In descriptive terms, this scale is defined as follows:
A score of 1-2 is considered to represent a mild stage of the disease, whereas a score of 3-5 is considered to indicate moderate to severe mucositis. Following visual scoring, a photograph was taken of each animal's mucosa using a standardized technique. At the conclusion of the experiment, all films were developed and the photographs randomly numbered. At least two independent trained observers graded the photographs in blinded fashion using the above-described scale (blinded scoring).

Molecule: O=C([O-])c1ccccc1.O=C([O-])c1ccccc1.O=C([O-])c1ccccc1.[Bi+3] [bismuth benzoate, Bismuth Benzoate]
- improvement in mucositis scores (time with score of three or higher) [1]: showed improvement in their mucositis scores

Molecule: O=C([O-])CC(O)(CC(=O)[O-])C(=O)[O-].[Bi+3] [bismuth citrate]
- improvement in mucositis scores (time with score of three or higher) [1]: showed improvement in their mucositis scores

Molecule: N[C@@H](CCC(=O)N[C@@H](CS)C(=O)NCC(=O)O)C(=O)O.[Bi] [bismuth glutathione, Bismuth Glutathione]
- improvement in mucositis scores (time with score of three or higher) (hamster, in vivo): showed improvement in their mucositis scores

Molecule: O=C([O-])[C@H]([O-])[C@@H]([O-])C(=O)[O-].[Bi+3].[K+] [bismuth potassium tartrate]
- improvement in mucositis scores (time with score of three or higher) [2]: did not show a statistically significant improvement

Molecule: O=C([O-])c1ccccc1[O-].[Bi+3].[OH-] [bismuth salicylate basic]
- improvement in mucositis scores (time with score of three or higher) [1]: showed improvement in their mucositis scores

Molecule: O=C([O-])[O-].[Bi+3].[Bi+3].[O-2].[O-2] [bismuth subcarbonate]
- improvement in mucositis scores (time with score of three or higher) [2]: did not show a statistically significant improvement

Molecule: O=[N+]([O-])[O-].O=[N+]([O-])[O-].O=[N+]([O-])[O-].O=[N+]([O-])[O-].[Bi+3].[Bi+3].[Bi+3].[Bi+3].[Bi+3].[O-2].[OH-].[OH-].[OH-].[OH-].[OH-].[OH-].[OH-].[OH-].[OH-] [bismuth subnitrate]
- improvement in mucositis scores (time with score of three or higher) [2]: did not show a statistically significant improvement

Molecule: Bismuth Ascorbate
- improvement in mucositis scores (time with score of three or higher) (solution containing 1.75 mg/ml, 0.5 ml into left cheek pouch three times per day, Day 0 to Day 19, single radiation dose 35-38 Gy): showed improvement in their mucositis scores

Molecule: bismuth (III) oxide
- improvement in mucositis scores (time with score of three or higher) [2]: did not show a statistically significant improvement

Molecule: bismuth subgallate
- improvement in mucositis scores (time with score of three or higher) [2]: did not show a statistically significant improvement
